Measured values taken from patent US9642874B2, “Compositions of selenoorganic compounds and methods of use thereof” (Alltech, Inc., priority 2014, dated 2017).

System: G6pc
Experiment: G6pc mRNA expression (QRT-PCR) in AML-12 cells
Assay type: cell-based, mouse
Conditions: insulin 10 and 100 nM
Protocol: For RNA analysis of insulin receptor (Insr), insulin like growth factor receptor (Igf1r), and Glucose-6-Phosphatase (G6pc), AML-12 cells were amplified in ITS, Dex and FBS-containing DMEM/F12 media, and cultured on 24-well (6.7×10^4 cells/well) plates in 10% FBS ITS-free DMEM/F12 media with or without Dex overnight. These cells were treated with control (water) or various compounds (diluted in 10% FBS ITS-free DMEM/F12 media with or without Dex) for 6 hours, 24 hours, or 48 hours.
In some experiments, the AML-12 cells were washed twice with PBS after the compound treatments for 24 hours, and then incubated with selenium compounds (150 or 300 ppb of each compound) in the presence or absence of insulin (10 or 100 nM), 0.1 mM 8-CPT (Sigma), or 0.5 μM Dex in serum-free, glucose/phenol red-free DMEM media supplemented with 20 mM lactose and 2 mM pyruvate, and 15 mM HEPES (glucose-production media) for another 6 hours. After treatments, cell media were collected and subjected to glucose assays using Abcam glucose assay kit according to the manufacturer's protocol. […]
Total RNA from these cells was isolated using Trizol (Invitrogen) according to the manufacturer's protocol, and then incubated with DNase I to remove any potential contaminated genomic DNA. […] Three to six samples were analyzed in each treatment group. […]

What does the source list for “insulin: insulin (10 or 100 nM, Sigma) used as comparator and cotreatment”?
G6pc expression (6 hours, FBS/ITS/Dex-free media): significantly inhibited G6pc expression; 8-CPT/Dex-induced G6pc expression (vs 8-CPT/Dex group): significantly decreased 8-CPT/Dex-induced G6pc expression
